# B1: G-CSF: granulocyte colony stimulating factor, currently used to accelerate neutrophil recovery in cancer patients undergoing chemotherapy (protein, UniProt P09919 31-207, looked up)
# Granulocyte …: TPLGPASSLPQSFLLKCLEQVRKIQGDGAALQEKLVSECATYKLCHPEELVLLGHSLGIPWAPLSSCPSQALQLAGCLSQLHSGLFLYQGLLQALEGISPELGPTLDTLQLDVADFATTIWQQMEELGMAPALQPTQGAMPAFASAFQRRAGGVLVASHLQSFLEVSYRVLRHLAQP
# What was measured:
# [1] = tested on: cyclophosphamide treated mice; experiment: Regeneration of neutrophils in cyclophosphamide-treated mice; assay type: in vivo; conditions: for neutrophil recovery versus saline treated mice: 5 days; for ANC after treatment was stopped: count on Day 13; for Day on which normal levels of absolute neutrophil counts (ANC) were reached: saline treated mice Day 7
# Experimental: In these studies, mice were injected intraperitoneally with a sublethal dose of 220 mg/kg cyclophosphamide (Day 1). […] After 72 hours (Day 3) mice were divided into 3 groups. […] G-CSF was used at 0.04 ug/dose (4 μg/kg/day) which is the dose frequently used in published reports studying the G-CSF effects in mice and is also the equivalent dose used in cancer patients. All administrations were performed twice daily (b.i.d.) for 5 consecutive days or as indicated. Blood samples were taken from individual mice on Day 4–8, and in some experiments on Days 13 or 17. At each time pont four or five test animals were sampled. Total and differential white blood cell counts of Gimsa-stained blood smears were performed.
# [2] = tested on: human bone marrow CD34+ cells (committed progenitor cells); experiment: 2 week semi-solid (methylcellulose) colony (CFU) assay; assay type: cell-based
# Source text: Hematopoiesis is sustained by a pool of hematopoietic stem cells (HSCs) that can self-renew and differentiate into hematopoietic progenitor cells (HPCs). HPCs are committed to specific lineages which can be identified based on their colony morphology when grown in semi-solid media in vitro, typically over a 2 week period. The colonies grown in the semi-solid colony assay are functionally defined as colony- or burst-forming units and include BFU-E and CFU-E (cells committed to the erythroid lineage), CFU-GM (cells committed to the granulocytic/monocytic lineage), BFU-MK and CFU-MK (cells committed to the megakaryocyte lineage) and CFU-GEMM (multipotent progenitors).
# [3] = tested on: human CD34+ cells (primitive hematopoietic progenitor cells) on stromal cell layer; experiment: Long-Term Culture (LTC) assay followed by semi-solid colony assay; assay type: cell-based
# Source text: An assay to evaluate the effect of a compound or of growth factors on PHPCs was first described by Dexter (Dexter T. M. et al, J. Cell. Physiol. 91:335–344 (1977)), and combines the Long-Term Culture (LTC) with the semi-solid colony assay. LTC is initiated over a pre-formed stromal cell layer which provides the necessary hematopoietic growth factors. It has been used extensively for the in vitro examination of murine and human hematopoiesis and to evaluate the ability of test compounds to generate LTC-ICs.
# For the LTC assays, CD34^+ cells were isolated by positive selection from human bone marrow cells, apheresed peripheral blood or umbilical cord blood using a MAC separation system. To establish a stromal feeder layer, human bone marrow cells were cultured in Myelocult long term culture medium for 2 weeks. […] Medium and PT-100 was exchanged every three days thereafter. At the end of the culture period the culture was assayed for progenitor cells by plating in semi-solid medium (methylcellulose) supplemented with growth factors (Stem Cell Factor, GM-CSF, IL-3 and Erythropoietin).
# The total number of myeloid, erythroid, blast forming and multilineage clonogeneic progenitors (colonies CFU-GM, CFU-E, BFU-E and CFU-GEMM, respectively) were determined after 14 days in methylcellulose culture.
# BALB/c mice = experiment: Stimulation of hematopoiesis in the spleen of normal mice (splenocyte colony assay); assay type: in vivo; conditions: twice daily for 5 days, subcutaneous injection or oral gavage
# Experimental: On the sixth day the animals were sacrificed and their spleens were excised using sterile procedures. The spleens were disrupted to produce single cell suspensions which were subsequently treated with a solution of Tris ammonium chloride (pH 7.2) to lyse erythrocytes. The resulting splenocyte populations were in a hemocytometer and resuspended at […] in Iscove's Modified Eagles medium (IMDM) supplemented with 2% heat inactivated fetal calf serum. 0.3 mL of each splenocyte solution was added to 3 mL of Methocult™GF M3434 (Stem Cell Technologies, Vancouver, BC, Canada), a methylcellulose medium containing recombinant cytokines used for colony assays of murine progenitor cells. The medium was vigorously mixed and then 1.1 mL of the mixture was placed in duplicate onto sterile 35 mm diameter culture dishes, resulting in 5×10^5 splenocytes/plate. The plated cells were incubated at 37° C. under humidified conditions in 95% air/5% CO2 for 7 days. CFU-E were enumerated as per the manufacturers specifications after 2 days, while BFU-E, CFU-GM and CFU-GEMM were enumerated after 7 days. For each mouse, the absolute CFU/spleen were calculated using the total splenocyte count determined in the hemocytometer. The data shown in FIG. 9 represents the mean±SD CFU/spleen from 3 mice in each dosing group.
# [4] = tested on: human bone marrow stromal cells; experiment: Production of G-CSF by human bone marrow stromal cells; assay type: cell-based; conditions: 10^−5 M PT-100, culture media collected on day 1
# Experimental: Mononuclear cells were purified from bone marrow and cultured long-term culture medium, (Stem Cell Technologies, Inc., Vancouver, B.C.) for 2 weeks, with a single feeding of fresh medium after 1 week. […] Culture media were collected on day 1. Supernatants were assayed for human G-CSF using a Quantikine high sensitivity immuno-assay kit (R+D Systems, Minneapolis, Minn.).
# [5] = tested on: human bone marrow CD34+ cells (committed progenitor cells); conditions: stated as previously shown; cited from earlier work
# [6] = tested on: human CD34+ cells (primitive hematopoietic progenitor cells) on stromal cell layer; conditions: cited from earlier work
molecule,measurement,setting,value
"CC(C)[C@H](N)C(=O)N1CCC[C@H]1B(O)O [PT-100, valine-prolineboronic acid]",neutrophil recovery over saline,"[1]; 0.1 μg/b.i.d. oral gavage, 5 consecutive days from Day 3",did not significantly enhance neutrophil recovery over saline
same,neutrophil recovery versus saline treated mice,[1]; 1 μg/b.i.d. s.c.,did not show much effect
same,ANC after treatment was stopped,[1]; 2 μg/b.i.d. by gavage for 5 days,decreased to normal counts by Day 13
same,"neutrophil regeneration during the treatment period, PT-100 versus G-CSF","[1]; 2 μg/b.i.d. by gavage, 5 consecutive days from Day 3",stimulated neutrophil regeneration to a similar level
same,Day on which normal levels of absolute neutrophil counts (ANC) were reached,[1]; 2 μg/b.i.d. oral gavage,5 days
same,Day on which normal levels of absolute neutrophil counts (ANC) were reached,[1]; 5 μg/b.i.d. oral gavage,5 days
same,neutrophil recovery versus saline treated mice,[1]; 5 μg/b.i.d. s.c.,accelerated
same,neutrophil recovery versus saline treated mice,[1]; 10 μg/b.i.d. s.c.,accelerated
same,neutrophil recovery versus saline treated mice,[1]; 20 μg/b.i.d. s.c.,accelerated
same,rate of neutrophil recovery with additional administration for 2 or 3 days,[1]; gavage b.i.d. for 2 or 3 days starting Day 3,increased the rate of recovery even further
same,reconstitution of neutrophils after one day of administration,"[1]; gavage b.i.d. for 1 day starting Day 3 (5, 2 or 1 μg/b.i.d.)",accelerated reconstitution of neutrophils over saline treated animals
same,rate of neutrophil recovery or ANC with 4 or 5 days versus 3 day administration,"[1]; gavage b.i.d., total of 4 or 5 days",does not significantly increase
same,"effect of additional administration on Days 5, 6 and 7 on ANC",[1]; oral gavage b.i.d.,caused a further increase in ANC
same,"neutrophil recovery, twice daily versus once per day administration","[1]; s.c., five day period from Day 3, both doses tested",faster rate of neutrophil recovery to higher neutrophil levels
same,"differentiation of committed progenitor cells (CFU-E, CFU-GM, CFU-GEMM, BFU-E colonies)","[2]; human bone marrow CD34+ cells, 4 h pre-incubation, 14 days in methylcellulose with sub-optimal growth factors",did not stimulate differentiation
same,generation of CFUs in the 2 week semi-solid assay,"[2]; human bone marrow, apheresed peripheral blood or umbilical cord blood cells",did not stimulate the generation of CFUs
same,number of 4 and 5 week LTC-ICs,"[3]; CD34+ cells from apheresed peripheral blood or umbilical cord blood, 30 days on irradiated stromal cells",increased
same,growth of very early progenitor cells in LTC assays,"[3]; all three cell sources (bone marrow, apheresed peripheral blood, umbilical cord blood), LTC-ICs at 4, 5 and 6 weeks",significantly increased
same,number of clonogeneic progenitors able to form colonies in semi-solid medium,"[3]; human bone marrow culture, 4 week LTC assay","increased, in a dose dependent manner"
same,"hematopoiesis in spleen (CFU/spleen: CFU-E, BFU-E, CFU-GM, CFU-GEMM)",BALB/c mice,stimulated hematopoiesis for all progenitor colony types tested
same,production of G-CSF by cultured stromal cells,[4],stimulates production of G-CSF
B1,ANC after treatment was stopped,[1]; 0.04 μg/b.i.d. s.c. for 5 days,decreased to normal counts by Day 13
same,"neutrophil regeneration during the treatment period, PT-100 versus G-CSF","[1]; 0.04 μg/b.i.d. subcutaneous injections, 5 consecutive days from Day 3",stimulated neutrophil regeneration to a similar level
same,CFU formation in the 2 week semi-solid assay,[5],stimulate CFU formation
same,effect on growth of early human hematopoietic progenitor cells,[6],not affected

# From patent US7067489B2, “Hematopoietic stimulation” (Point Therapeutics, Inc., priority 1998, dated 2006)
